One assay deals with T1, Peregrin (Homo sapiens, UniProt P55201).
T1 sequence (P55201 whole entry): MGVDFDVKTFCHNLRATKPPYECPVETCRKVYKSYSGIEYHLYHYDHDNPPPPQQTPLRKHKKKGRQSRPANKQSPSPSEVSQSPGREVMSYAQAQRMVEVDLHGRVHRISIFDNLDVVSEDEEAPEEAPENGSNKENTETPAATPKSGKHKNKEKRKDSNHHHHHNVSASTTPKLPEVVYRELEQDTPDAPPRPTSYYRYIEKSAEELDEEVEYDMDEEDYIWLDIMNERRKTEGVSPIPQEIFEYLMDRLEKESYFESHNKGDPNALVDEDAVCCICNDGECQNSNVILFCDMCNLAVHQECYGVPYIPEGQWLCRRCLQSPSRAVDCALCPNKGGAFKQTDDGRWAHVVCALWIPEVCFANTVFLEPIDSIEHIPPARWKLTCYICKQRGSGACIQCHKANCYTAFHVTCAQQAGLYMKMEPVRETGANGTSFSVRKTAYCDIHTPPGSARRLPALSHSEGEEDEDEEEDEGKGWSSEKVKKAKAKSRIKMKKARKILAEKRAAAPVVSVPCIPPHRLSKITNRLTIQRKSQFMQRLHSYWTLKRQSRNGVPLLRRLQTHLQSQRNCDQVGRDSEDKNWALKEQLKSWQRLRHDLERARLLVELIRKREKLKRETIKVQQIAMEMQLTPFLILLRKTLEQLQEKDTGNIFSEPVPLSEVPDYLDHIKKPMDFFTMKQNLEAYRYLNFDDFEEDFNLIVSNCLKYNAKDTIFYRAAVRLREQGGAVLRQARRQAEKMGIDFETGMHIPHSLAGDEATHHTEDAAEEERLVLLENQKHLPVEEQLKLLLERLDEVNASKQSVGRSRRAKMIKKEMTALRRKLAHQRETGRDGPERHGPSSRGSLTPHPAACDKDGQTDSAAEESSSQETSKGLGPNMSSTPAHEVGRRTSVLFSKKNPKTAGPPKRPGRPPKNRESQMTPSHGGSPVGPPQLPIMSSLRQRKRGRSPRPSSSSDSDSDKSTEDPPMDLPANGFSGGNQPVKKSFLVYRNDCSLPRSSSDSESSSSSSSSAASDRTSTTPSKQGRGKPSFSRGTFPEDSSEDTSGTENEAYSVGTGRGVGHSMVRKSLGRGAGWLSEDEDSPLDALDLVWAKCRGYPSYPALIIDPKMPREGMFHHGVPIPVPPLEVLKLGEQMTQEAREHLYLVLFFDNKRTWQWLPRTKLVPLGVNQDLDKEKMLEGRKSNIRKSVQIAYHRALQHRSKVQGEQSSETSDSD

Assay [1] concerns the target T2, Bromodomain-containing protein 1 (Homo sapiens, UniProt O95696).
T2 sequence (O95696 whole entry): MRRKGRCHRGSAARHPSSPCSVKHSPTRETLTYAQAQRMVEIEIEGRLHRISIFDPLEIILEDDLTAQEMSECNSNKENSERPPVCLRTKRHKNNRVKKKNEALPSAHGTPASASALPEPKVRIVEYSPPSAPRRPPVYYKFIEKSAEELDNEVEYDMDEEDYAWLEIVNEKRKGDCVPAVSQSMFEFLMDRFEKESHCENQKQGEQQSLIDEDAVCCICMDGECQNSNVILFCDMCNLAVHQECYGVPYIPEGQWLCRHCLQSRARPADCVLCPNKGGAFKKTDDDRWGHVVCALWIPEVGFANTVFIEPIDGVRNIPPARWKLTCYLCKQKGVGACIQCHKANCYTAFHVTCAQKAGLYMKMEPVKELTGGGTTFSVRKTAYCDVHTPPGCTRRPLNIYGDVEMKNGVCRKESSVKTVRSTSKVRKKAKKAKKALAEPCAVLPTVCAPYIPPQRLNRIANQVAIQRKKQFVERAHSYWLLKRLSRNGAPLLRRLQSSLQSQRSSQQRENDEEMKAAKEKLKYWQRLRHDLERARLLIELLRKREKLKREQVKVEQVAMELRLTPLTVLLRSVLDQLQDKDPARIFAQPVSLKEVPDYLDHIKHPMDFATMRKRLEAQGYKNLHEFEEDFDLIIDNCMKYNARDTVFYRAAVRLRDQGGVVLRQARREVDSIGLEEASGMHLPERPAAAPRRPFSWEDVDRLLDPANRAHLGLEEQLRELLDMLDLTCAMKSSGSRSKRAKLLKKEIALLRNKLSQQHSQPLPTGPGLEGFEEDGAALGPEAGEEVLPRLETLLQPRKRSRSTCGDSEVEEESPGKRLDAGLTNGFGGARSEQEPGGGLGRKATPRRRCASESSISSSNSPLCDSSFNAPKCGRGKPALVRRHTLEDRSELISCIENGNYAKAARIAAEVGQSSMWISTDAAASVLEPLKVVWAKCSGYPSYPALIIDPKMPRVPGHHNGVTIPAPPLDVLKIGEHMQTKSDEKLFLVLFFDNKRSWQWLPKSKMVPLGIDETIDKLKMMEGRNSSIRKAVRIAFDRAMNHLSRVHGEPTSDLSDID

Assay [2] concerns the target T3, Bromodomain and PHD finger-containing protein 3 (Homo sapiens, UniProt Q9ULD4).
T3 sequence (Q9ULD4 whole entry): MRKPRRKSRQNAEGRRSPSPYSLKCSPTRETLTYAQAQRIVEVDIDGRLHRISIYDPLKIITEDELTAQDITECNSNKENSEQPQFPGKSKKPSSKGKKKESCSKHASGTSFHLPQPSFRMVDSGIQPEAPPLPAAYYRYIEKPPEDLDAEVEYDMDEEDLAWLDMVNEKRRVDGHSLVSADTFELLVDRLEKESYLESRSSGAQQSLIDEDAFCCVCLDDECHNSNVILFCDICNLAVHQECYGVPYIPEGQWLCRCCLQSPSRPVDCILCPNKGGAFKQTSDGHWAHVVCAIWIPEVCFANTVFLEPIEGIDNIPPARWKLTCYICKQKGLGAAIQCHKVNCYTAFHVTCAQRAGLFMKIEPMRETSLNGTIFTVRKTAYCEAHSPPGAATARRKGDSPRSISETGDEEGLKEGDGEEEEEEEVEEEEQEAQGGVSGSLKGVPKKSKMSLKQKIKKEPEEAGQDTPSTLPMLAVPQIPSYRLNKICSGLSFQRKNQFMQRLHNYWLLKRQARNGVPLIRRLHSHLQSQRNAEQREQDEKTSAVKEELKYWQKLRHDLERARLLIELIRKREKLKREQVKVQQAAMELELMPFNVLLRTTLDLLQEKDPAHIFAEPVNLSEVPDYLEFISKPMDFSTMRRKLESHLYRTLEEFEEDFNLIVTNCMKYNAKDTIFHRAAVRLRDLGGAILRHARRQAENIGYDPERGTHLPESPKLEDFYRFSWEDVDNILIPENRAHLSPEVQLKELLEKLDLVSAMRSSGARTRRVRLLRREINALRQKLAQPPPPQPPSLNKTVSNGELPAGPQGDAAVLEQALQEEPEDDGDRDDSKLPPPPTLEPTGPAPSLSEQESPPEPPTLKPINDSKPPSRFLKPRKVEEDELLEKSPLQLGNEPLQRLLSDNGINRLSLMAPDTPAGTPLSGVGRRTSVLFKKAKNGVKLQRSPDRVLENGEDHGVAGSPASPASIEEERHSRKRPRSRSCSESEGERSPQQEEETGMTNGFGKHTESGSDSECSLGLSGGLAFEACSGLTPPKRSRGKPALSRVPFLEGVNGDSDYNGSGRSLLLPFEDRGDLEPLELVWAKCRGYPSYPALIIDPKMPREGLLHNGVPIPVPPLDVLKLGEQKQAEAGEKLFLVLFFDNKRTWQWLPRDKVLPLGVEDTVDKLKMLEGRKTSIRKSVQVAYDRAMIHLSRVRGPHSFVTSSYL

Assay [3] addresses T4, Casein kinase I isoform alpha (Homo sapiens, UniProt P48729).
The target in assay [4] is T5, Casein kinase I isoform delta (Homo sapiens, UniProt P48730).
T5 sequence (P48730 whole entry, canonical isoform): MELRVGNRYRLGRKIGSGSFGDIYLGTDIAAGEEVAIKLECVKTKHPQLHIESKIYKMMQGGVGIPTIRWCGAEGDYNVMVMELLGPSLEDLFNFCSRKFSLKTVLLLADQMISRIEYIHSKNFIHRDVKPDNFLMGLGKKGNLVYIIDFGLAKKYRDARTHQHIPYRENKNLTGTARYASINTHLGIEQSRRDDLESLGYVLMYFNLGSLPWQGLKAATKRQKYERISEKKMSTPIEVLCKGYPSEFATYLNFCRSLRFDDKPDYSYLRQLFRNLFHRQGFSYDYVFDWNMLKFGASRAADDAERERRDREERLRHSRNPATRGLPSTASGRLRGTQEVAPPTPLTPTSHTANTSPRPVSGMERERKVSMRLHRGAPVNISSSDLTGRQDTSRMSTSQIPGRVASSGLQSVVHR
In assay [5] the target is T6, Casein kinase I isoform epsilon (Homo sapiens, UniProt P49674).
T6 sequence (P49674 whole entry, canonical isoform): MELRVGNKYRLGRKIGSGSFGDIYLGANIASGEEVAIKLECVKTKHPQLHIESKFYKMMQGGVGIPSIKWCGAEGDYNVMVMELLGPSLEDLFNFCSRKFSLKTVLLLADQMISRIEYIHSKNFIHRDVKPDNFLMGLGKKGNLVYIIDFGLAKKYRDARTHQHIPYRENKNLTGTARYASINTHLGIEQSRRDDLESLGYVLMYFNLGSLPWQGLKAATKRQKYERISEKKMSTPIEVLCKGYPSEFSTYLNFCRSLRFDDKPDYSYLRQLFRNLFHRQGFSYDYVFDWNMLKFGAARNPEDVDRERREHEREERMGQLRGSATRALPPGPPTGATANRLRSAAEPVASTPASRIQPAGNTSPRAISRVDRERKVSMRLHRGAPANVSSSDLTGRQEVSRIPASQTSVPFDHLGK
The target in assay [6] is T4, Casein kinase I isoform alpha. This is another data set of the same source.
Assay [7] has as its target T5, Casein kinase I isoform delta. This is another data set of the same source.
In assay [8] the target is T6, Casein kinase I isoform epsilon. This is another data set of the same source.
Assay [9] has as its target T7, Inhibitor of nuclear factor kappa-B kinase subunit beta (Homo sapiens, UniProt O14920).
T7 sequence (O14920 whole entry): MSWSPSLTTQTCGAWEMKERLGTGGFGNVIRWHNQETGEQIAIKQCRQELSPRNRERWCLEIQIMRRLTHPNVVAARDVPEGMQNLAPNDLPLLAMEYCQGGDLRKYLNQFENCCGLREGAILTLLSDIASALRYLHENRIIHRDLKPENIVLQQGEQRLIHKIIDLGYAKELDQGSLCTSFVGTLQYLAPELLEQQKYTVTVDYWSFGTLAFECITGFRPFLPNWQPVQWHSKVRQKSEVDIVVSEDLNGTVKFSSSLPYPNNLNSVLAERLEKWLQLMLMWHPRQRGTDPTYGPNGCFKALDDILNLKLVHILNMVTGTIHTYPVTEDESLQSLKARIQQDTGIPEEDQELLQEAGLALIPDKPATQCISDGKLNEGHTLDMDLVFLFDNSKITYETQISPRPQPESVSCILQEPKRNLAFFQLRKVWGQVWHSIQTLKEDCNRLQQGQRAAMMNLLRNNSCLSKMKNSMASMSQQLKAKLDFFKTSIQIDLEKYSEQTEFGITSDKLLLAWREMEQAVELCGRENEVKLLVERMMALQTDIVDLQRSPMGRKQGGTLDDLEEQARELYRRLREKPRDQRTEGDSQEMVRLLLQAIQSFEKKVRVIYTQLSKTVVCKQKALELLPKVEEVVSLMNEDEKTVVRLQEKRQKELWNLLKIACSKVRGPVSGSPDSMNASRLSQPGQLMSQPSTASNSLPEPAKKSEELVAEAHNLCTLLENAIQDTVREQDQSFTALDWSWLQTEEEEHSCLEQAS

T4 sequence (P48729 whole entry, canonical isoform): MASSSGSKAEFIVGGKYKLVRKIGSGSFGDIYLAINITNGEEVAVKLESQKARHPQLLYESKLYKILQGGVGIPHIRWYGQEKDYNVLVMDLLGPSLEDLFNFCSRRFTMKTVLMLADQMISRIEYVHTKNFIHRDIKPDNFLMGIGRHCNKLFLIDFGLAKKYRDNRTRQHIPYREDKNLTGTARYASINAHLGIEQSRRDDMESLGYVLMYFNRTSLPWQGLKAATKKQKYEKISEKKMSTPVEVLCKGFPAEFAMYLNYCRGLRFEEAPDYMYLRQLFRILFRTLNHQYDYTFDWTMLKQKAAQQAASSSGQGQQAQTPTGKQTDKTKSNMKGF

The term IC50 denotes the concentration needed to halve the response being measured. Low values mean higher potency, high ones lower potency. `CCc1cc2cc(NS(=O)(=O)c3ccc(C#N)cc3)ccc2n(CC)c1=O`: the IC50 (against Peregrin; in assay [1]; in assay [2]) was greater than 100 µM throughout.
As to `CCc1ccc(-c2ncn(CC3(F)CCN(C)CC3)c2-c2ccnc3[nH]ccc23)nc1`, the IC50 in assay [3], in assay [4] and in [5] was greater than 3 µM each time.
In the case of `CN1CCC(F)(Cn2cnc(-c3ccc(F)cn3)c2-c2ccnc3[nH]ccc23)CC1`, the figures for the IC50 in [6], in assay [7] and in [8] were 0.0072 µM, 0.0061 µM and 0.0273 µM, respectively.
In [9], `CN(C)C(=O)c1sc2nc(N3CCC(S(C)(=O)=O)CC3)cc(C(F)(F)F)c2c1N` [BI-5026] gave an IC50 greater than 10 µM.

These data come from ChEMBL document CHEMBL5446079, “Affinity Biochemical Literature for EUbOPEN Chemogenomic Library” (2024).
